Our source for the IC50 values is ChEMBL document CHEMBL5150022, “Small Molecule Inhibitors of Lymphocyte Perforin as Focused Immunosuppressants for Infection and Autoimmunity” (J Med Chem, 2022).

The term IC50 denotes the concentration that inhibits the measured activity by half.

Some results are limits rather than exact numbers.

For assay [1], the target named is Perforin-1 (Mus musculus) (UniProt P10820). As to the kind of experiment: Inhibition of recombinant Perforin-1 (mouse).
The target is the same in assay [2]. As to the kind of experiment: Inhibition of Perforin-1 in human Jurkat cells.

Sequence of Perforin-1 (Mus musculus) (P10820 whole entry, looked up): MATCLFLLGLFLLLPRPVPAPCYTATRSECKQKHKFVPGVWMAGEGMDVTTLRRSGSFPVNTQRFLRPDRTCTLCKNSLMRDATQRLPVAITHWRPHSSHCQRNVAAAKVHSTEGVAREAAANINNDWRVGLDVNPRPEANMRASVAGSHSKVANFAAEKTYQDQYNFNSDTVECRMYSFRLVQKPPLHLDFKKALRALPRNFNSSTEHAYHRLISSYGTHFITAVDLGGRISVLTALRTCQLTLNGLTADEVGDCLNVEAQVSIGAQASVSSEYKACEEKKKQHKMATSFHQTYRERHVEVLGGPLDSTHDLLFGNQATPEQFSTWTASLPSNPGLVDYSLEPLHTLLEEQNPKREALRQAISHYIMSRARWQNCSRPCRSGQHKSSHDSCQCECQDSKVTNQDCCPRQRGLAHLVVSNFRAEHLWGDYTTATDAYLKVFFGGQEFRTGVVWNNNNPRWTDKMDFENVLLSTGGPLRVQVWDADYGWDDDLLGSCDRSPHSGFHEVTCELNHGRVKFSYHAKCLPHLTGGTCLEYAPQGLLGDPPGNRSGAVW

In the case of `CN1CCc2cc(-c3ccc(-c4cncc(NS(=O)(=O)c5ccc(F)cc5F)c4)s3)ccc2C1=O`, the IC50 in assay [1] was above 20 µM.

As for `O=C1NCCc2ccc(-c3ccc(-c4cncc(NS(=O)(=O)c5ccc(F)cc5F)c4)s3)cc21`, in assay [1], the half-maximal inhibitory concentration (IC50) is above 20 µM.

As for `Cc1ccc2c(c1)C(c1ccc(-c3cncc(NS(=O)(=O)c4ccc(F)cc4F)c3)s1)N(C)C2=O` (stereo not given), in assay [1], the concentration for half-maximal inhibition (IC50) is above 20 µM.

For `O=C1NCCc2cc(-c3ccc(-c4cncc(NS(=O)(=O)c5ccc(F)cc5F)c4)s3)ccc21`, the IC50 in assay [1] was above 20 µM.

Molecule `Cc1cc2c(c(=S)[nH]1)C(=O)O/C2=C\c1ccc(C)o1` displayed an IC50 in assay [2] of 2.7 µM.
